Experimental data: paper PMC11945486, “TAS1R2/TAS1R3 Single-Nucleotide Polymorphisms Affect Sweet Taste Receptor Activation by Sweeteners: The SWEET Project” (Nutrients, 2025)
Where two headings read alike, the source gives them in different places. No end group written: not given here.

T1: human TAS1R2-WT/TAS1R3-G367C (Homo sapiens, UniProt Q7RTX0+Q8TE23, G367C)
T1 construct: expressed in transfected cells; host or cells: HEK293T stably expressing Gα16gust44
T1 sequence (Q8TE23 20-839): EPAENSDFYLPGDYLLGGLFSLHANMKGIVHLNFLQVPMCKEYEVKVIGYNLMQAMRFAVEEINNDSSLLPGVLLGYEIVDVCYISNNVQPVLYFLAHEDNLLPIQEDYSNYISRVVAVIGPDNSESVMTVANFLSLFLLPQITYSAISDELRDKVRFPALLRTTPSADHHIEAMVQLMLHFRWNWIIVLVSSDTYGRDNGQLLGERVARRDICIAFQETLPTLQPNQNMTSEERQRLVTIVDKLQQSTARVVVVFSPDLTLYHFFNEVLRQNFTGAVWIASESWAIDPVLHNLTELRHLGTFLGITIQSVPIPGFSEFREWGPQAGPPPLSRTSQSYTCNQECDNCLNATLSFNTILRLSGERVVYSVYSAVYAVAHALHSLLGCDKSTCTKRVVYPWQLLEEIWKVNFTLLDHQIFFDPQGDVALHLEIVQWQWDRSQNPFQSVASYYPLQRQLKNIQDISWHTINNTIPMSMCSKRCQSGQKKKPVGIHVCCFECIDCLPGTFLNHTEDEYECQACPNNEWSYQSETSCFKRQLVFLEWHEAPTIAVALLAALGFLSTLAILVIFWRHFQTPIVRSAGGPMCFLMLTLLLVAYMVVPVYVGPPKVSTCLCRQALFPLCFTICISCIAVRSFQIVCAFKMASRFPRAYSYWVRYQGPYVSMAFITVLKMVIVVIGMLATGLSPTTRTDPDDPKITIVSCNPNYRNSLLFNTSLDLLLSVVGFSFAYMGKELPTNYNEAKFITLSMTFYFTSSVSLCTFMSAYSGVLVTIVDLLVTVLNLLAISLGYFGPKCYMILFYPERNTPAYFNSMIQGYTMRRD
T1 sequence (Q7RTX0 21-852 G367C): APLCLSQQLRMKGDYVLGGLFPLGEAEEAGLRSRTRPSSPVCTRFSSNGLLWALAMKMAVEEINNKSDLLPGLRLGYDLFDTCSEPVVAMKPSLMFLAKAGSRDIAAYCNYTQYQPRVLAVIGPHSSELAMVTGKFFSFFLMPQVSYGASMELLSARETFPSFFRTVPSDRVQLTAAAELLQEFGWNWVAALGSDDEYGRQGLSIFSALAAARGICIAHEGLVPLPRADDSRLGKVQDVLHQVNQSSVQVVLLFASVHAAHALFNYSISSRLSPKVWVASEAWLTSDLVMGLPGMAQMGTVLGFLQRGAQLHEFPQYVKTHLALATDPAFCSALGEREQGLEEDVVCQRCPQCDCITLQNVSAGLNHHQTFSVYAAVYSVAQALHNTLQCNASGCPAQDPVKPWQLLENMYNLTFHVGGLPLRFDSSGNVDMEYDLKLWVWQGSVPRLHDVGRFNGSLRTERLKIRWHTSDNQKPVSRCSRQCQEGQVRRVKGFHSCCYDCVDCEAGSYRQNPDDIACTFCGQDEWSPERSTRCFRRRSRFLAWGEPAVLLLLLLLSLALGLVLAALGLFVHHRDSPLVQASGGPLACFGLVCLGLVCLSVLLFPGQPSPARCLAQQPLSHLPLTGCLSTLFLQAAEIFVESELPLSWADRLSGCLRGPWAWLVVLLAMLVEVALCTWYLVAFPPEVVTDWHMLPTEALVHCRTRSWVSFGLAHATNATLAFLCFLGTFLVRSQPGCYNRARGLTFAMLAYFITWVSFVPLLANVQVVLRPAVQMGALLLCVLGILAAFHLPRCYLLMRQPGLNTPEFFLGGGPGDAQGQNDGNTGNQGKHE


Molecular target: T1, human TAS1R2-WT/TAS1R3-G367C
Assay: Calcium mobilisation assay, TAS1R2-WT with TAS1R3 variant G367C
Format: cell-based
Conditions: for Max ΔF/F0: maximal signal amplitude
Excerpt: The coding sequences for TAS1R2 and TAS1R3 were commercially synthesised, and the human codon was optimised for expression in human cells. The coding sequences of human TAS1R2 and TAS1R3 were subcloned and inserted into the mammalian expression vectors pcDNA6/myc-HisA and pcDNA4/myc-HisA (Invitrogen; Thermo Fisher Scientific; Illkirch, France) between the EcoRI and NotI restriction sites, generating the plasmids pcDNA6-TAS1R2 and pcDNA4-TAS1R3, respectively. To increase protein expression in mammalian cells, an upstream start codon was used, which was a sequence called MAX, corresponding to the QBI SP163 element also described in pcDNA4-HisMax (Invitrogen; Thermo Fisher Scientific; Illkirch, France). To measure the expression level of the receptor by immunohistochemistry, we used the FLAG sequence ([…]) in the C-terminal position, which encodes the FLAG tag epitope. SNP variants of TAS1R2 and TAS1R3 were constructed based on […], respectively, using site-directed mutagenesis (Genewiz; Leipzig, Germany).
The HEK293T cells were kindly provided by Jay P. Slack (Givaudan Flavors Corporation; Cincinnati, OH, USA). HEK293T cells stably transfected with Gα16gust44 [43, 67] were seeded in poly-D-lysine-coated clear-bottom black 96-well plates (0.35 × 10^5 cells/well) in high-glucose DMEM supplemented with 2 mM GlutaMAX, 10% dialysed foetal bovine serum with penicillin/streptomycin and G418 (400 μg/mL) at 37 °C and 6.3% CO2 in a humidified atmosphere as previously reported. […] As a negative control, HEK293T cells were mock-transfected with the empty expression vector. After a further 24 h of incubation, the HEK293T cells were washed with C1 buffer (130 mM NaCl, 5 mM KCl, 10 mM HEPES pH 7.4 and 2 mM CaCl2). The 96-well plates containing the cells were then stimulated with sweet-tasting compounds. […] Different concentration ranges were tested depending on the sweet compound injected. The Ca^2+ changes were expressed as fractional changes in fluorescent light intensity: ΔF/F = (F − F0)/F0, where F was the fluorescent light intensity at each point, and F0 was the value of emitted fluorescent light prior to stimulus application. To calculate dose–response relationships, the changes in fluorescence upon stimulus application were averaged, mock-subtracted and baseline-corrected. The dose–response data obtained were adjusted using a 4-parameter logistic equation. The half-maximal effective concentrations (EC50 values) and maximal signal amplitudes were calculated using SigmaPlot software (version 15.0) (Systat Software; San Jose, CA, USA).
For in vitro calcium mobilisation assay performed on hTAS1R2-SNPs, hTAS1R3-SNPs and mTAS1R3-I60T, 6 to 7 concentrations were tested for each sweet compound, plus buffer alone. All concentration–receptor combinations were measured in duplicate, and each experiment was repeated at least 4 times (8 wells/concentration). Results were expressed for each concentration as ΔF/F mean ± SEM and represented as dose–response curves.

Row | Molecule | R1 = Variant EC50/WT EC50 | Max ΔF/F0 | EC50 (read-out: EC50) [µM] | EC50 (brazzein) [µg/mL]
1 | CC1=CC(=O)NS(=O)(=O)O1 [Acesulfame K, acesulfame K] | 0.7 | 0.06 ± 0.01 | 443 ± 121 | –
2 | O=S(=O)(O)NC1CCCCC1 [Cyclamate, cyclamate] | – | – | 2120 ± 34 | –
3 | C[C@H](CC[C@@H](O[C@@H]1O[C@H](CO[C@@H]2O[C@H](CO)[C@@H](O)[C@H](O)[C@H]2O)[C@@H](O)[C@H](O)[C@H]1O[C@@H]1O[C@H](CO)[C@@H](O)[C@H](O)[C@H]1O)C(C)(C)O)[C@H]1CC[C@@]2(C)[C@@H]3CC=C4[C@@H](CC[C@H](O[C@@H]5O[C@H](CO[C@@H]6O[C@H](CO)[C@@H](O)[C@H](O)[C@H]6O)[C@@H](O)[C@H](O)[C@H]5O)C4(C)C)[C@]3(C)[C@H](O)C[C@]12C [Mogroside V, mogroside V] | 2.6 | 0.60 ± 0.02 | 82.4 ± 5.2 | –
4 | COc1ccc(CCC(=O)c2c(O)cc(O[C@@H]3O[C@H](CO)[C@@H](O)[C@H](O)[C@H]3O[C@@H]3O[C@@H](C)[C@H](O)[C@@H](O)[C@H]3O)cc2O)cc1O [NHDC, neohesperidin dihydrochalcone] | 1.6 | 0.75 ± 0.05 | 81.3 ± 13.1 | –
5 | COC(=O)[C@H](Cc1ccccc1)NC(=O)[C@H](CC(=O)O)NCCC(C)(C)C [Neotame] | 1.6 | 0.31 ± 0.01 | 1.95 ± 0.09 | –
6 | C=C(C)[C@@H]1CC=C(/C=N/O)CC1 [Perillartine, perillartine] | 2.3 | 1.49 ± 0.24 | 32 ± 17.1 | –
7 | C=C1C[C@@]23CC[C@H]4[C@@](C)(CCC[C@@]4(C)C(=O)O[C@@H]4O[C@H](CO)[C@@H](O)[C@H](O[C@@H]5O[C@H](CO)[C@@H](O)[C@H](O)[C@H]5O)[C@H]4O[C@@H]4O[C@H](CO)[C@@H](O)[C@H](O)[C@H]4O)[C@@H]2CC[C@]1(O[C@@H]1O[C@H](CO)[C@@H](O)[C@H](O[C@@H]2O[C@H](CO)[C@@H](O)[C@H](O)[C@H]2O)[C@H]1O[C@@H]1O[C@H](CO)[C@@H](O)[C@H](O)[C@H]1O)C3 [Rebaudioside M, rebaudioside M] | 1.2 | 0.35 ± 0.01 | 47.3 ± 1.9 | –
8 | OC[C@H]1O[C@H](O[C@]2(CCl)O[C@H](CCl)[C@@H](O)[C@@H]2O)[C@H](O)[C@@H](O)[C@H]1Cl [Sucralose] | 1.7 | 0.32 ± 0.01 | 182 ± 7 | –
9 | brazzein (QDKCKKVYENYPVSKCQLANQCNYDCKLDKHARSGECFYDEKRNLQCICDYCEY; ends and bridges not checked; cysteine pairing not given here; UniProt P56552 1-54, looked up) [sweet-tasting protein obtained by recombinant production using the yeast Pichia pastoris] | 1.6 | 0.72 ± 0.01 | – | 181.7 ± 6.9
10 | thaumatin | 1.4 | 0.52 ± 0.01 | – | –
11 | thaumatin (protein, Eight disulfides, sweet-tasting plant protein, E957) ATFEIVNRCSYTVWAAASKGDAALDAGGRQLNSGESWTINVEPGTKGGKIWARTDCYFDDSGSGICKTGDCGGLLRCKRFGRPPTTLAEFSLNQYGKDYIDISNIKGFNVPMDFSPTTRGCRGVRCAADIVGQCPAKLKAPGGGCNDACTVFQTSEYCCTTGKCGPTEYSRFFKRLCPDAFSYVLDKPTTVTCPGSSNYRVTFCPTA | – | – | 14.8 ± 0.5 | –
